{
  "source": "patent US9597347B2",
  "about": "“Compositions for treating obesity and insulin resistance disorders” (President and Fellows of Harvard College, priority 2003, dated 2017)",
  "key": {"[1]": {"test_system": "phosphorylation of AMPK on threonine 172 and of ACC on serine 79", "assay": "Western analysis of AMPK and ACC phosphorylation in CHO-HIR cells", "assay_type": "cell-based", "method": "CHO-HIR mammalian cells were washed in PBS and incubated overnight in serum-free DMEM before treatment with 500 μM AICAR (positive control) or 12.5 μM, 25 μM or 50 μM resveratrol. Cells were harvested after 30 minutes and lysates were immediately boiled in SDS and subjected to Western analysis with site-specific antibodies. Phosphorylation of AMPK at Thr172 indicates activation of the kinase. Active AMPK phosphorylates and inactivates ACC at serine 79.\nCHO cells were also treated with 500 μM AICAR (positive control), DMSO, 100 nM, 500 nM, 2.5 μM, 12.5 μM, 25 μM, or 50 μM resveratrol and subject to Western Blot analysis as described above. Western blots were stripped and re-probed for phosphorylated (active) AMPK, total AMPK, phosphorylated acetyl CoA carboxylase (ACC), which is the downstream target of AMPK, and tubulin, which served as a loading control."}, "[2]": {"test_system": "DAF-16 mutant worms (mgDf47)", "assay": "Nile Red staining of fat accumulation in DAF-16 mutant worms (mgDf47)", "assay_type": "in vivo, C. elegans", "conditions": "defective in insulin-signaling", "method": "Sir2.1, which is activated by resveratrol, acts via the transcription factor DAF-16 to prolong lifespan in […] (Tissenbaum and Guarente (2001) Nature 410:227).\nC. elegans strains were maintained as described at 25° C., except when noted (Brenner (1974) Genetics 77:71). The wild type reference strain was N2 Bristol; the mutant strains were: sir-2.1(ok434), T01C8.1(ok524), and daf-16 (mgDf47). Daf-16 (mgDf47) was obtained from the Ruvkun laboratory, MGH; all other strains were obtained from the Caenorhabditis Genetics Center (from C. Elegans Gene Knockout Consortium).\nSynchronized starved L1 worms were grown in the presence of Nile Red. Strains were grown on NGM plates at 25° C. for approximately 48 hours until the young adult stage was reached. 20-30 young adult worms were then washed 2× with M9 buffer and transferred to new NGM/Nile red experimental plates that contained either OP50 or HTT5 E. coli carrying the L4440 RNAi control vector. For experiments comparing the effect of nicotinamide and resveratrol on fat mobilization, OP50 plates were coated with vehicle alone or Nicotinamide (in PBS), or vehicle alone and Resveratrol (in Ethanol or DMSO)."}, "[3]": {"test_system": "HepG2 cells", "assay": "Oxidation of 14C-palmitate in HepG2 cells", "assay_type": "cell-based", "conditions": "resveratrol 10 μM in 1% DMSO, AICAR 500 μM in H2O, metformin 1 mM in H2O; 4 hours; vehicle = 1", "method": "(§1) Oxidation of 14C-palmitate to acid-soluble products (modified from H4IIEC3 cells [Witters, L. A. and B. E. Kemp, Insulin activation of acetyl-CoA carboxylase accompanied by inhibition of the 5′-AMP-activated protein kinase. J Biol Chem, 1992. 267(5): p. 2864-7] and HepG2 cells were maintained as described above. Cells (10^6 cells/T25) were seeded in a T25 flask one day prior to the experiment. On the day of the experiment cells were washed with assay buffer (114 mM NaCl, 4.7 mM KCL, 1.2 mM KH2PO4, 1.2 mM MgSO4, 11 mM glucose) before labeling with 14C-palmitate (0.4 μCi/ml) in presence of vehicle, or resveratrol (10 μM), or AICAR (500 μM) for 4 hours.\n(§2) At the end of incubation, the cap of each T25 flask was replaced with a stopper and a 1′×1.5″ Whatman filter paper soaked with 250 μl 2N NaOH. Each flask was injected with 2 ml of 6N HCL, placed in a horizontal position for 10 minutes and left standing overnight. The next morning, 1 ml H2O and 61 μl NaOH were added to a glass scintillation vial and the filter papers from each T25 flask were transferred to their respective vial. 10 ml Aquasol was added to each vial and allowed to stand for 2 hours, after which the vials were vortexed to dissolve the […] and counted in the scintillation counter. The results were expressed as nmols/h/106 cells and shown as the fold effect. ^14CO2 production ranged from 0.3 to 1.8 nmols/h/106 cells. The experiment was repeated three times."}, "[4]": {"test_system": "H4IIEC3 cells", "assay": "Oxidation of 14C-palmitate in H4IIEC3 cells", "assay_type": "cell-based", "conditions": "resveratrol 10 μM in 1% DMSO, AICAR 500 μM in H2O, metformin 1 mM in H2O; 4 hours; vehicle = 1", "method": "as §1, §2"}, "[5]": {"test_system": "phosphorylation of ACC", "assay": "Western blot of ACC phosphorylation in 3T3-L1 adipocytes", "assay_type": "cell-based", "conditions": "harvested 6 or 10 days after induction of differentiation", "method": "Phosphorylation of ACC, which reflects AMPK activity, was also observed in 3T3-L1 adipocytes treated with either ethanol or resveratrol. 3T3-L1 cells were incubated with either ethanol or resveratrol and then harvested either 6 or 10 days after they were induced to differentiate into adipocytes from the parent 3T3 fibroblast cell line. […] ACC was also phosphorylated when the cells were incubated in serum free media overnight before harvesting (lanes marked “SF”). The reason for the extra band in the SIRT1 blot at day 6 is unknown, but we hypothesize that it may be a modified form of SIRT1. Tubulin served as a loading control."}, "[6]": {"test_system": "TNF-alpha treated adipocytes", "assay": "Radioactive glucose uptake in TNF-alpha treated, insulin resistant adipocytes", "assay_type": "cell-based", "conditions": "resveratrol 5 μM or 15 μM; roziglitazone 4 μM (positive control); with TNF-alpha", "method": "Adipocytes were treated with TNF-alpha to induce insulin resistance as described in Kabayama et al., Glycobiology 15:21-29 (2005) and Wu et al., Mol. Cell 3:151-8 (1999)."}},
  "data": [
    {"smiles": "Oc1ccc(/C=C/c2cc(O)cc(O)c2)cc1", "note": "[resveratrol, 3,5,4′-Trihydroxy-trans-stilbene]", "values": [
      {"measurement": "activation of AMPK (phosphorylated AMPK and ACC)", "setting": "[1]; CHO cells, 100 nM, 500 nM, 2.5, 12.5, 25 or 50 μM", "value": "activation of AMPK in CHO cells with increasing concentrations of resveratrol"},
      {"measurement": "phosphorylation of AMPK (threonine 172) and ACC (serine 79)", "setting": "[1]; resveratrol 12.5, 25 or 50 μM, AICAR 500 μM (positive control), 30 minutes, serum-free overnight", "value": "stimulates phosphorylation of AMPK and ACC"},
      {"measurement": "fat mobilization and fat accumulation", "setting": "[2]", "value": "stimulates fat mobilization and a decrease in fat accumulation"},
      {"measurement": "14C-CO2 production (Fold Effect)", "setting": "[3]", "value": 6, "unit": "Fold Effect"},
      {"measurement": "14C-CO2 production (Fold Effect)", "setting": "[4]", "value": 2.3, "unit": "Fold Effect"},
      {"measurement": "phosphorylation of ACC", "setting": "[5]", "value": "stimulated the phosphorylation of ACC at both day 6 and day 10"},
      {"measurement": "radioactive glucose uptake / insulin sensitivity", "setting": "[6]", "value": "partially rescued the TNF-alpha treated adipocytes restoring insulin sensitivity"}
    ]}
  ]
}
